The values below come from patent US4732977A, “Carbapenem antibiotics” (priority 1986, dated 1988).

Structures are written as SMILES. In brackets after ≈: the same amount, converted by molar mass.

One series concerns K. pneumoniae A20468. Nature of the series: M.I.C., tube dilution. Format: cell-based. The settings on record: overnight incubation at 37° C., Nutrient Broth.
A further series concerns P. aeruginosa A21213. Description: M.I.C., tube dilution. Format: cell-based. Particulars: overnight incubation at 37° C., Nutrient Broth.
For the next series, the system named is P. morganii A15153. Nature of the series: M.I.C., tube dilution. Format: cell-based. The settings on record: printed M. morganii A15153, overnight incubation at 37° C.
A further series relates to S. aureus A-9537. Description: M.I.C., tube dilution. Format: cell-based.
A further series concerns E. cloacae A-9659. Description: M.I.C., tube dilution. Particulars: overnight incubation at 37° C., Nutrient Broth. Format: cell-based.
In another series the test system is E. coli A15119. Nature of the series: M.I.C., tube dilution. The settings on record: overnight incubation at 37° C., Nutrient Broth. Format: cell-based.
The test system of another series is S. marcescens A20019. Nature of the series: M.I.C., tube dilution. Format: cell-based. The settings on record: overnight incubation at 37° C., Nutrient Broth.
In a further series the test system is E. cloacae A-9656. Description: M.I.C., tube dilution. Format: cell-based. The settings on record: overnight incubation at 37° C., Nutrient Broth.
A further series concerns E. coli A20341-1. Nature of the series: M.I.C., tube dilution. Particulars: overnight incubation at 37° C., Nutrient Broth. Format: cell-based.
Series [1] can be described thus: Blood levels in mice after intramuscular administration.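 For all read-outs here: compounds dissolved in 0.1 M phosphate buffer at pH 7, data from one experiment using four mice for each compound.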 Particulars: mice, 20 mg/kg i.m. (table 9); for AUC / Cmax: 20 mg/kg.
Text: Compounds were solubilized in 0.1 M phosphate buffer pH 7.
a single test; 4 mice used per compound.
Compounds were solubilized in 0.1 M phosphate buffer, pH 7.
on a single test; 4 mice per compound.
The next series relates to S. pyogenes A-9604. Description: M.I.C., tube dilution. The settings on record: overnight incubation at 37° C., Nutrient Broth. The class given is cell-based.
The next series concerns K. pneumoniae A-9664. Description: M.I.C., tube dilution. Format: cell-based. Particulars: overnight incubation at 37° C., Nutrient Broth.
The subject of the next series is P. mirabilis A-9900. Description: M.I.C., tube dilution. The class given is cell-based. The settings on record: overnight incubation at 37° C., Nutrient Broth.
The test system of series [2] is P. aeruginosa A-9843A. Nature of the series: M.I.C., tube dilution. Format: cell-based. The settings on record: overnight incubation at 37° C., Nutrient Broth.
In another series the test system is S. faecalis A20688. Nature of the series: M.I.C., tube dilution. The settings on record: overnight incubation at 37° C., Nutrient Broth. The class given is cell-based.
The next series deals with P. rettgeri A22424. Nature of the series: M.I.C., tube dilution. The settings on record: overnight incubation at 37° C., Nutrient Broth. Format: cell-based.
Series [3] deals with S. aureus A-9606 (Pen-res.). Description: M.I.C., tube dilution. Particulars: overnight incubation at 37° C. Format: cell-based.
A further series concerns S. pneumoniae A-9585. Nature of the series: M.I.C., tube dilution. Particulars: overnight incubation at 37° C., Nutrient Broth. The class given is cell-based.
The test system of another series is P. vulgaris A21559. Description: M.I.C., tube dilution. Format: cell-based. The settings on record: overnight incubation at 37° C., Nutrient Broth.
The subject of series [4] is P. aeruginosa A-9843a. Description: animal or person. Format: in vivo, mice. The settings on record: mice, i.m.; P. aeruginosa A9843A.
Experimental: The PD50 (dose in mg/kg required to give protection to 50% of the infected mice) is indicated.
with drugs 0 and 2 hours postinfection.
The PD50 (dose in mg/kg) required to give protection to 50% of the infected mice is indicated.

For the molecule `C[C@@H](O)C1C(=O)N2C(C(=O)[O-])=C(SCc3cn(C)n[n+]3C)CC12` (stereo partly drawn) [Example 15 "C", 3-[4-(N,N-dimethyl-1,2,3-triazolium)methylthio]-6α-[1-(R)-hydroxyethyl]-7-oxo-1-azabicyclo(3.2.0)hept-2-ene-2-carboxylate], the MIC with K. pneumoniae A20468 (listed as Ex. 15"C") amounted to 0.13 µg/mL (≈ 0.384 µM); against P. aeruginosa A21213 (listed as Ex. 15"C"), 0.5 µg/mL (≈ 1.48 µM); against P. morganii A15153 (listed as Ex. 15"C"), 0.25 µg/mL (≈ 0.739 µM); with S. aureus A-9537 (+50% serum, listed as Ex. 15"C"), 0.06 µg/mL (≈ 0.177 µM); in the series with S. aureus A-9537 (overnight incubation at 37° C., Nutrient Broth, listed as Ex. 15"C"), 0.016 µg/mL (≈ 0.0473 µM); in the series on E. cloacae A-9659 (listed as Ex. 15"C") it was 0.13 µg/mL (≈ 0.384 µM). For the same molecule, the MIC turned out to be 0.06 µg/mL (≈ 0.177 µM) with E. coli A15119 (listed as Ex. 15"C"); 0.13 µg/mL (≈ 0.384 µM) against S. marcescens A20019 (listed as Ex. 15"C"); 0.13 µg/mL (≈ 0.384 µM) in the series with E. cloacae A-9656 (listed as Ex. 15"C"); 0.03 µg/mL (≈ 0.0887 µM) in the series with E. coli A20341-1; 0.0003 µg/mL (≈ 0.000887 µM) against S. pyogenes A-9604 (listed as Ex. 15"C"); 0.06 µg/mL (≈ 0.177 µM) against K. pneumoniae A-9664 (listed as Ex. 15"C"). For the same molecule, the MIC came to 0.06 µg/mL (≈ 0.177 µM) with P. mirabilis A-9900 (listed as Ex. 15"C"); 8 µg/mL (≈ 23.6 µM) with P. aeruginosa A-9843A [2] (listed as Ex. 15"C"); 0.5 µg/mL (≈ 1.48 µM) against S. faecalis A20688; 0.25 µg/mL (≈ 0.739 µM) in the series with P. rettgeri A22424 (listed as Ex. 15"C"); 0.03 µg/mL (≈ 0.0887 µM) in series [3]; 0.0005 µg/mL (≈ 0.00148 µM) in the series with S. pneumoniae A-9585. This molecule yielded a minimum inhibitory concentration (MIC) with P. vulgaris A21559 (listed as Ex. 15"C") of 0.06 µg/mL (≈ 0.177 µM). Also, the T1/2 in [1] stood at 10 min. The molecule further displayed an area under the curve (AUC) in series [1] of 7300 ng·h/mL. Besides, the Cmax in series [1] stood at 15100 ng/mL.
Regarding `C[C@@H](O)C1C(=O)N2C(C(=O)[O-])=C(SCc3cn(C)n[n+]3C)CC12` (stereo partly drawn) [Example 15 "B", 3-[4-(N,N-dimethyl-1,2,3-triazolium)methylthio]-6α-[1-(R)-hydroxyethyl]-7-oxo-1-azabicyclo(3.2.0)hept-2-ene-2-carboxylate], the minimum inhibitory concentration (MIC) in the series on K. pneumoniae A20468 (listed as Ex. 15 "B") is 0.016 µg/mL (≈ 0.0473 µM); in the series on P. aeruginosa A21213 (listed as Ex. 15 "B") it was 0.13 µg/mL (≈ 0.384 µM); against P. morganii A15153 (listed as Ex. 15 "B") it was 0.06 µg/mL (≈ 0.177 µM); in the series with S. aureus A-9537 (+50% serum, listed as Ex. 15 "B"), 0.016 µg/mL (≈ 0.0473 µM); with S. aureus A-9537 (overnight incubation at 37° C., Nutrient Broth, listed as Ex. 15 "B"), 0.004 µg/mL (≈ 0.0118 µM); against E. cloacae A-9659 (listed as Ex. 15 "B"), 0.016 µg/mL (≈ 0.0473 µM). Besides, the MIC stood at 0.008 µg/mL (≈ 0.0236 µM) against E. coli A15119 (listed as Ex. 15 "B"); 0.016 µg/mL (≈ 0.0473 µM) against S. marcescens A20019 (listed as Ex. 15 "B"); 0.03 µg/mL (≈ 0.0887 µM) with E. cloacae A-9656; 0.008 µg/mL (≈ 0.0236 µM) in the series on E. coli A20341-1 (listed as Ex. 15 "B"); 0.001 µg/mL (≈ 0.00296 µM) against S. pyogenes A-9604 (listed as Ex. 15 "B"); 0.03 µg/mL (≈ 0.0887 µM) against K. pneumoniae A-9664. Besides, the minimum inhibitory concentration (MIC) in the series with P. mirabilis A-9900 came to 0.03 µg/mL (≈ 0.0887 µM); against P. aeruginosa A-9843A [2] (listed as Ex. 15 "B"), 2 µg/mL (≈ 5.91 µM); in the series on S. faecalis A20688 it was 0.5 µg/mL (≈ 1.48 µM); against P. rettgeri A22424 (listed as Ex. 15 "B"), 0.13 µg/mL (≈ 0.384 µM); in [3] (listed as Ex. 15 "B"), 0.008 µg/mL (≈ 0.0236 µM); in the series on S. pneumoniae A-9585, 0.0005 µg/mL (≈ 0.00148 µM). Moreover, the MIC against P. vulgaris A21559 (listed as Ex. 15 "B") is 0.008 µg/mL (≈ 0.0236 µM). The T1/2 in series [1] amounted to 10 min. In addition, in [1], the area under the curve (AUC) is 7400 ng·h/mL. This molecule also returned a Cmax in [1] of 15900 ng/mL. In the series on P. aeruginosa A-9843a [4], this molecule registered a PD50/treatment of 0.89 mg/kg.
